Data reported in patent US20100061928A1, “LABELLED ANALOGUES OF HALOBENZAMIDES AS RADIOPHARMACEUTICALS” (Institut National De La Sante et De La Recherche Medicale …, priority 2006, published 2010).
Counter-ions that a name gives are not always drawn.

How the values were obtained:
[1] = Elimination of the molecules: cumulative urinary and faecal excretion 0-72 hours; type: in vivo, mouse
[2] = system: B16 F0 murine melanoma cells; assay: Colony forming technique: chemotherapeutic and radiotherapeutic (^125I) effects in vitro; type: cell-based
Protocol: The colony forming technique is involved, that is to say the growth of colonies of clones starting from tumour cells (B16 F0 murine melanoma cells) inoculated at a low concentration. This method makes it possible to visualize the cytotoxic and cytostatic properties of the compounds studied. The study was carried out in three parts:
The experiment is carried out on 6-well plates where 200 cells are inoculated in 2 ml of DMEM medium. After 20 hours, the medium is withdrawn and replaced with 2 ml of medium comprising the labelled compound at the desired concentration. This study is carried out in comparison with control wells comprising DMEM medium alone. […] The plates are incubated for 8 days and then the medium is withdrawn. The wells are rinsed with PBS and methanol is added for 3 minutes. Once attached, the cells are coloured with crystal violet with a contact time of 3 minutes. Subsequently, the colonies comprising more than 50 cells are counted using a dedicated counter. The growth of the treated colonies of cells is quantified in comparison with the controls. The activity of the product is expressed by a percentage of inhibition:
100−[(number of treated colonies)/(number of control colonies)]×100

human melanoma (M4Beu) = assay: Cytotoxicity, Hoechst test, M4Beu; conditions: read-out: IC50 M4Beu; M4Beu human melanoma, 48 hours incubation, Hoechst test
murine melanoma (B16 F0) = assay: Cytotoxicity, Hoechst test, B16 F0
[3] = system: human fibroblast cell lines; assay: Cytotoxicity, Hoechst test, human fibroblasts; conditions: Homo sapiens, Fibroblast, 48 h, read-out: IC50 Fibroblast
tumour = assay: Dosimetry with regard to the tumour (MIRD programme, extrapolated to ^131I)
[4] = system: grafted B16 F0 murine melanoma tumour; assay: Biodistribution of the ^125I-labelled molecules in the melanoma-bearing mouse (autoradiography of whole-body sections); conditions: for Biodistribution, radioactivity concentration in B 16, Mean: B 16 tumour
[5] = 1 H after i.v., 125I-labelled, dose = 2.1 MBq
[6] = 3 H after i.v., 125I-labelled, dose = 2.1 MBq
[7] = 6 H after i.v., 125I-labelled, dose = 2.1 MBq
[8] = 24 H after i.v., 125I-labelled, dose = 2.1 MBq
[9] = 72 H after i.v., 125I-labelled, dose = 2.1 MBq

CCN(CC)CCNC(=O)c1cccc2nc3cc(I)ccc3nc12 [compound 151, N-(2-diethylaminoethyl)-7-iodophenazine-1-carboxamide dihydrochloride]
Faecal elimination 0-72 hours (Faeces) ([1]; cumulative excretion 0-72 hours, faeces, mice in metabolic cages): 61%
Urinary and faecal elimination 0-72 hours (Total) ([1]; cumulative excretion 0-72 hours, urine + faeces): 66.8%
Urinary elimination 0-72 hours (Urine) ([1]; cumulative excretion 0-72 hours, urine, mice in metabolic cages): 5.8%
elimination route (in words) ([1]; urinary versus faecal, 0-72 hours): faecal route predominates
inhibition at 2 µM ([2]; Mus musculus, B16F0, cold compound, 2 μM, colony forming, 48 hours contact, read-out: % of inhibition (Chemotherapeutic effects alone)): 21%
inhibition at 4 µM ([2]; Mus musculus, B16F0, cold compound, 4 μM, colony forming, 48 hours contact, read-out: % of inhibition (Chemotherapeutic effects alone)): 74%
inhibition at 6 µM ([2]; Mus musculus, B16F0, cold compound, 6 μM, colony forming, 48 hours contact, read-out: % of inhibition (Chemotherapeutic effects alone)): 87%
inhibition at 8 µM ([2]; Mus musculus, B16F0, cold compound, 8 μM, colony forming, 48 hours contact, read-out: % of inhibition (Chemotherapeutic effects alone)): 97%
inhibition at 10 µM ([2]; Mus musculus, B16F0, cold compound, 10 μM, colony forming, 48 hours contact, read-out: % of inhibition (Chemotherapeutic effects alone)): 100%
Cumulative effect (% inhib) (Radiotherapeutic and chemotherapeutic effects) ([2]; cold compound 151 at 2 μM with 0 activity of [125I]-151): 19%
IC50 (human melanoma (M4Beu)): 3.6 µM
IC50 (murine melanoma (B16 F0); read-out: IC50 B16, B16 F0 murine melanoma, 48 hours incubation, Hoechst test): 3.6 µM
cytotoxic activity compared with DACA (in words) (murine melanoma (B16 F0); various cell lines studied (B16 F0, M4Beu, fibroblasts)): activities similar to that of DACA
IC50 [3]: 2.7 µM
Effective period (tumour; extrapolated to 131I labelling): 30.0 h
Biological period (tumour; from biodistribution data): 35.5 hours
Biodistribution, radioactivity concentration in B 16, Mean [4, 5]: 20.96 % ID/g
Biodistribution, radioactivity concentration in B 16, Mean [4, 6]: 23.65 % ID/g
Biodistribution, radioactivity concentration in B 16, Mean [4, 7]: 27.70 % ID/g
Biodistribution, radioactivity concentration in B 16, Mean [4, 8]: 11.47 % ID/g
Biodistribution, radioactivity concentration in B 16, Mean [4, 9]: 6.26 % ID/g
Biodistribution, radioactivity concentration in GB, Mean ([4]; GB, 3 H after i.v., 125I-labelled, dose = 2.1 MBq): 107.29 % ID/g
Biodistribution, radioactivity concentration in Ic, Mean [4, 5]: 56.33 % ID/g
Biodistribution, radioactivity concentration in Ic, Mean [4, 6]: 52.72 % ID/g
Biodistribution, radioactivity concentration in Ic, Mean [4, 7]: 52.58 % ID/g
Biodistribution, radioactivity concentration in Ic, Mean [4, 8]: 2.30 % ID/g
Biodistribution, radioactivity concentration in Sc, Mean [4, 5]: 11.25 % ID/g
Biodistribution, radioactivity concentration in Sc, Mean [4, 6]: 14.52 % ID/g
Biodistribution, radioactivity concentration in Sc, Mean [4, 7]: 16.09 % ID/g
Biodistribution, radioactivity concentration in Sc, Mean [4, 8]: 2.95 % ID/g
tumour concentration, times higher than with BZA ([4]; at 72 hours (FIG. 1B)): 8 times
Biodistribution, radioactivity concentration in blood, Mean [4, 5]: 3.92 % ID/g
Biodistribution, radioactivity concentration in blood, Mean [4, 6]: 1.39 % ID/g
Biodistribution, radioactivity concentration in brain, Mean [4, 5]: 1.79 % ID/g
Biodistribution, radioactivity concentration in brain, Mean [4, 6]: 0.44 % ID/g
tumour concentration, % of the injected dose per gram of tumour ([4]; from the first hour): 21 % ID/g
Biodistribution, radioactivity concentration in kidney, Mean [4, 5]: 9.45 % ID/g
Biodistribution, radioactivity concentration in kidney, Mean [4, 6]: 3.42 % ID/g
Biodistribution, radioactivity concentration in kidney, Mean [4, 7]: 1.55 % ID/g
Biodistribution, radioactivity concentration in liver, Mean [4, 5]: 10.94 % ID/g
Biodistribution, radioactivity concentration in liver, Mean [4, 6]: 5.83 % ID/g
Biodistribution, radioactivity concentration in liver, Mean [4, 7]: 4.04 % ID/g
Biodistribution, radioactivity concentration in liver, Mean [4, 8]: 1.44 % ID/g
Biodistribution, radioactivity concentration in lungs, Mean [4, 5]: 8.77 % ID/g
Biodistribution, radioactivity concentration in lungs, Mean [4, 6]: 2.84 % ID/g
Biodistribution, radioactivity concentration in lungs, Mean [4, 7]: 1.40 % ID/g
Biodistribution, radioactivity concentration in muscle, Mean [4, 5]: 1.27 % ID/g
Biodistribution, radioactivity concentration in muscle, Mean [4, 6]: 0.45 % ID/g
Biodistribution, radioactivity concentration in muscle, Mean [4, 7]: 0.42 % ID/g
Biodistribution, radioactivity concentration in pancreas, Mean [4, 5]: 6.63 % ID/g
Biodistribution, radioactivity concentration in pancreas, Mean [4, 6]: 1.53 % ID/g
Biodistribution, radioactivity concentration in spleen, Mean [4, 5]: 14.02 % ID/g
Biodistribution, radioactivity concentration in spleen, Mean [4, 6]: 13.84 % ID/g
Biodistribution, radioactivity concentration in spleen, Mean [4, 7]: 18.88 % ID/g
Biodistribution, radioactivity concentration in thyroid, Mean [4, 6]: 8.63 % ID/g
Biodistribution, radioactivity concentration in thyroid, Mean [4, 7]: 54.71 % ID/g
Biodistribution, radioactivity concentration in thyroid, Mean [4, 8]: 214.42 % ID/g
Biodistribution, radioactivity concentration in thyroid, Mean [4, 9]: 12.74 % ID/g
Biodistribution, radioactivity concentration in uvea, Mean [4, 5]: 14.19 % ID/g
Biodistribution, radioactivity concentration in uvea, Mean [4, 6]: 17.49 % ID/g
Biodistribution, radioactivity concentration in uvea, Mean [4, 7]: 14.74 % ID/g
Biodistribution, radioactivity concentration in uvea, Mean [4, 8]: 11.64 % ID/g
Biodistribution, radioactivity concentration in uvea, Mean [4, 9]: 11.19 % ID/g
